According to patent US5747517A, “Benzylidene rhodanines” (Eli Lilly and Company, priority 1996, dated 1998):

Legend:
[1] = test system: β-amyloid peptide production in 293 751 SWE and CHO 751 SWE cells; experiment: β-Amyloid Peptide Production Inhibition Activity In Cells (cellular assay, ELISA normalised to MTT); format: cell-based; conditions: 10.0 μg/ml; read-out: Percent Inhibition (β-amyloid peptide production)
Protocol: β-AMYLOID PEPTIDE […] (CELLULAR ASSAY)
Two cell lines (human kidney cell line 293 and Chinese hamster ovary cell line CHO) were stably transfected with the gene for APP751 containing the double mutation Lys651 -Met652 to Asn651 -Leu652 (APP-751 numbering) commonly called the Swedish mutation using the method described in Citron, et al., Nature 360:672-674 (1992). The transfected cell lines were designated as 293 751 SWE and CHO 751 SWE, and were plated in Corning 96 well plates at 2.5×10^4 or 1×10^4 cells per well respectively in Dulbecco's minimal essential media (DMEM) plus 10% fetal bovine serum. Following overnight incubation at 37° C. in an incubator equilibrated with 10% carbon dioxide (CO2), the media were removed and replaced with 200 μl per well of media containing an aspartyl protease inhibitor. After a two hour pretreatment period, the media were again removed and replaced with fresh media containing the aspartyl protease inhibitor and the cells were incubated for an additional two hours.
After treatment, plates were centrifuged at 1200 rpm for five minutes at room temperature to pellet cellular debris from the conditioned media. From each well, 100 μl of conditioned media were transferred into an ELISA plate precoated with antibody 266 against β-amyloid peptide(13-28) (Seubert et al., supra. ) and stored at 4° C. overnight. An ELISA assay employing labelled antibody 6C6 (against β-amyloid peptide-1-16) was run the next day to measure the amount of β-amyloid peptide produced.
Cytotoxic effects of the compounds were measured by a modification of the method of Hansen et al., (1989) J. Immun. Meth. 119:203-210. To the cells remaining in the tissue culture plate, was added 25 μl of a 3-(4,5-dimethylthiazol-2-yl)2,5-diphenyltetrazolium bromide (MTT) stock solution (5 mg/ml) to a final concentration of […]. Cells were incubated at 37° C. for one hour, and cellular activity was stopped by the addition of an equal volume of MTT lysis buffer (20% w/v sodium dodecylsulfate in 50% DMF, pH 4.7). Complete extraction was achieved by overnight shaking at room temperature. The difference in the OD562nm and the OD650nm was measured in a Uvmax microplate reader as an indicator of the cellular viability.
The results of the β-amyloid peptide ELISA were fit to a standard curve and expressed as ng/ml β-amyloid peptide. In order to normalize for cytotoxicity, these β-amyloid peptide results were divided by the MTT results and expressed as a percentage of the results from a drug-free control.

[2] = molecular target: T1, cathepsin D (Homo sapiens, UniProt P07339); experiment: Cathepsin D Inhibition Assay (non-cellular); format: biochemical; conditions: 10.0 μg/ml; read-out: Percent Inhibition (cathepsin D)
T1 construct: Human brain cathepsin D was purified from frozen post-mortem cortex; from tissue; host or cells: human tissue: brain cortex (Assay 1), liver (Assay 2, bought from Athens Research and Technology) or placenta (Assay 3); the results are not tied to one of them
Excerpt: First, test compounds which inhibit exemplary aspartyl proteases, particularly cathepsin D, are identified as aspartyl protease inhibitors. As used herein, the term "test system" refers to an assay that is designed to measure aspartyl protease inhibitory activity. A typical test system used for such identification is a non-cellular assay where turnover of the protease substrate is monitored upon the administering of a protease inhibitor. The turnover of the protease […] is then compared to the turnover of substrate in a control test system in which no such aspartyl protease inhibitor has been administered. As used herein, the term "control test system" refers to an identical test system that is run side-by-side with the test system with the exception no aspartyl protease inhibitor is administered. This non-cellular assay is used to identify those test compounds having suitable aspartyl protease inhibitory activity in a non-cellular environment. An example of a non-cellular assay that may be used to determine in vitro aspartyl protease inhibitory activity reacts partially purified human brain cathepsin D with a substrate, e.g., porcine renin tetradecapeptide. The resultant reaction mixture is divided into portions and each portion is incubated for a different period of time. After the reaction is stopped, the turnover of substrate in each portion is determined using reverse-phase high performance liquid chromatography (HPLC). Protease inhibition activity may be calculated based on the rates of substrate turnover. This assay is exemplified in Assay 1, below. A second non-cellular assay for determining in vitro aspartyl protease inhibitory activity utilizes a microtiter plate, where a suitable aspartyl protease, such as a cathepsin D is added to each well together with controls. A suitable fluorometric substrate is added to each well. The resultant reaction mixture is allowed to react for a preselected time, e.g., 30 minutes. After enzyme activity is terminated, the substrate or its product may be determined fluorometrically and then the protease inhibition activity may be calculated based on the rates of substrate turnover. This assay is exemplified in Assay 2, below. CATHEPSIN D INHIBITION ACTIVITY (NON-CELLULAR ASSAY) Human brain cathepsin D was purified from frozen post-mortem cortex substantially in accordance with the method of Nixon and Morotta, (1984) J. Neurochem. 43:507-516. The cortex material was prepared and applied to a DEAE-Sepharose® column. The flow through fraction was dialyzed against 50 mM Tris-HCl, pH 7.5, and applied to concanavalin A Sepharose® and eluted with 50 mM Tris, pH 7.5, 0.5M methyl α-D-mannopyranoside. The eluted cathepsin D activity was dialyzed against 25 mM Tris, pH 7.5, and stored at -40° C. (Con A pool) until use. […] The substrate, a porcine renin tetradecapeptide,was added to each reaction mixture to yield a final concentration of 44 μM in a total volume of 300 μl. The samples were incubated at 37° C. for 0, 10, 20, or 30 minutes, and then boiled for 5 minutes to stop the reaction. The samples were centrifuged in a microcentrifuge for 10 minutes at 14,000 rpm at 4° C. After centrifugation, 200 μL of each reaction was injected onto a C18 reverse phase liquid chromatography column (Vydac, Hesperia, Calif.) with a Perkin Elmer ISS 100 autosampler and eluted with a gradient of 0-50% CH3 CN in 0.1% CF3 CO2 H at 2 ml/min. Peptide product peaks were monitored at 220 nm with a Perkin Elmer LC 95 detector and integrated with Rainin Dynamax software in order to quantitate activity. CATHEPSIN D INHIBITION ACTIVITY (NON-CELLULAR FLUOROMETIC ASSAY) A fluorometric assay was adapted from the method disclosed by Murakami et al., (1981) Anal. Biochem. 110:232-239 for measuring renin activity. […] Compound stocks were prepared by dissolving an aspartyl protease inhibitor in DMSO for each concentration tested in the assay and then 5 μL of compound stock was added to each of the wells prepared above. […]

T1 sequence (P07339 169-412 limits assumed): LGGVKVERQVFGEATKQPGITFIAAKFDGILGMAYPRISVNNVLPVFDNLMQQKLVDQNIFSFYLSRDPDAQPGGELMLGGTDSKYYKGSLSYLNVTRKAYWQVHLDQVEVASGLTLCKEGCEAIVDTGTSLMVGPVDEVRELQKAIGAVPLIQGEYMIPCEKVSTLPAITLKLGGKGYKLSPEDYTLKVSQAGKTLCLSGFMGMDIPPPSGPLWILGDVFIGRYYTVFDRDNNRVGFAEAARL
T1 sequence (P07339 65-162 limits assumed): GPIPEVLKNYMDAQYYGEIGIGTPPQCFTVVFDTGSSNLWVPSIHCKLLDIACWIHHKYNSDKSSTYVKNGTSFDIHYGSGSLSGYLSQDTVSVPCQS

**Q.** How did the inhibition at 10 µg/mL [1] turn out when `CC(C)(C)c1ccc(Oc2cccc(C=C3SC(=S)N(CCC(=O)O)C3=O)c2)cc1` [Example 8, 5-[[3-[4-(t-butyl)phenoxy]phenyl]methylene]-3-(2-carboxyethyl)-2-thioxo-4-thiazolidinone] was run?
**A.** Its inhibition at 10 µg/mL is 46%.

**Q.** What about the inhibition at 10 µg/mL [2] of the same molecule?
**A.** The inhibition at 10 µg/mL was 0%.
